Experimental data taken from patent US20240368163A1, “COMPOUNDS AND METHODS FOR MODULATING SPLICING” (REMIX THERAPEUTICS INC., priority 2021, published 2024).
Read-outs that look alike come from different tables or passages of the source.

Columns and labels:
Format in all cases: cell-based, human
HTT [1] = assay: Splicing RT-qPCR assay, HTT mRNA canonical junction (CJ) and alternative junction (AJ); conditions: RT-qPCR panel, canonical junction mRNA, compound concentration having 50% response in CJ decrease, read-out: HTT IC50 (decrease in CJ mRNA levels)
Method in brief: (§1)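 Splicing switch read by one-step RT-qPCR of canonical and alternative exon junctions, housekeeper-normalized (GAPDH/GUSB/PPIA), 2^(−ΔΔCt) vs DMSO as percent response. Cells (A673 or K562) dosed 24 h, 11 points 3-fold from 10 uM, DMSO ≤0.25%.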

MYB [2] = assay: Splicing RT-qPCR assay, MYB mRNA canonical junction (CJ) and alternative junction (AJ); conditions: RT-qPCR panel, canonical junction mRNA, compound concentration having 50% response in CJ decrease, read-out: MYB IC50 (decrease in CJ mRNA levels)
Method in brief: as §1

SMN2 = assay: Splicing RT-qPCR panel, SMN2 canonical junction (CJ) mRNA; conditions: RT-qPCR panel, canonical junction mRNA, compound concentration having 50% response in CJ decrease, read-out: SMN2 IC50 (decrease in CJ mRNA levels)
Method in brief: as §1

Target C [3] = assay: Splicing RT-qPCR panel, Target C canonical junction (CJ) mRNA; conditions: RT-qPCR panel, canonical junction mRNA, compound concentration having 50% response in CJ decrease, read-out: Target C IC50 (decrease in CJ mRNA levels)
Method in brief: as §1

MYB [4] = assay: HiBiT protein abundance assay, MYB; conditions: Table 13A, modified K562 cells
Method in brief: (§2)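 Target abundance was measured as HiBiT luminescence after 24 h compound treatment of tagged K562 cells. Responses were normalized between unmodified K562 and DMSO-treated tagged cells, and IC50 taken at the 50% level of a 4PL curve.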

HTT [5] = assay: HiBiT protein abundance assay, HTT; conditions: Table 13A, modified K562 cells
Method in brief: as §2

Target C [6] = assay: HiBiT protein abundance assay, Target C; conditions: Table 13A, modified K562 cells
Method in brief: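 Cells carrying the HiBiT knock-in were plated at 10000 cells/well, dosed with compound (10-point, 3-fold, 10 μM top final) and incubated 24 hours at 37 °C. Lytic reagent was then added and luminescence read. Percent response fed a 4PL fit for IC50.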

IC50 (HTT [1]; Homo sapiens) | IC50 (MYB [2]; Homo sapiens) | IC50 (SMN2; Homo sapiens) | IC50 (Target C [3]; Homo sapiens) | IC50 (MYB [4]; Homo sapiens, K562, 24 h) | IC50 (HTT [5]; Homo sapiens, K562, 24 h) | IC50 (Target C [6]; Homo sapiens, K562, 24 h) | IC50 (HTT [1]) | IC50 (MYB [2]) | IC50 (SMN2) | IC50 (Target C [3]) | IC50 (MYB [4]; 24 hours) | IC50 (HTT [5]; 24 hours) | IC50 (Target C [6]; 24 hours) | SMILES
100 to 1000 nM | 1000 to 10000 nM | 100 to 1000 nM | 1000 to 10000 nM | 1000 to 10000 nM | 100 to 1000 nM | 100 to 1000 nM |  |  |  |  |  |  |  | c1nc2c(-c3cn[nH]c3)ccc(-c3cnc(N4CCN[C@@H](C5CC5)C4)nn3)c2s1 [Compound 552]
100 to 1000 nM | 100 to 1000 nM | 100 to 1000 nM | 1000 to 10000 nM | 100 to 1000 nM | 100 to 1000 nM | 100 to 1000 nM |  |  |  |  |  |  |  | CC1(C)CC(Oc2ccc(-c3ccc(-n4cccn4)c4[nH]ncc34)nn2)CC(C)(C)N1 [Compound 554]
100 to 1000 nM | 100 to 1000 nM | < 100 nM | 100 to 1000 nM | 100 to 1000 nM | < 100 nM | < 100 nM |  |  |  |  |  |  |  | CC1(C)CC(Nc2ccc(-c3ccc(-n4cccn4)c4[nH]ncc34)nn2)CC(C)(C)N1 [Compound 558]
100 to 1000 nM | 1000 to 10000 nM | 100 to 1000 nM | 1000 to 10000 nM | 1000 to 10000 nM | 100 to 1000 nM | 100 to 1000 nM |  |  |  |  |  |  |  | c1cnn(-c2ccc(-c3ccc(N4CCNC(C5CC5)C4)nn3)c3cn[nH]c23)c1 (stereo not shown) [Compound 560]
> 10000 nM | > 10000 nM | 1000 to 10000 nM | > 10000 nM | 1000 to 10000 nM | 1000 to 10000 nM | 1000 to 10000 nM |  |  |  |  |  |  |  | C[C@@H]1CN(c2ncc(-c3ccc(-c4cn[nH]c4)c4ncsc34)nn2)C[C@H](C)N1 [Compound 562]

The next lines start with the compound.

SMILES | IC50 (HTT [1]; Homo sapiens) | IC50 (MYB [2]; Homo sapiens) | IC50 (SMN2; Homo sapiens) | IC50 (Target C [3]; Homo sapiens) | IC50 (MYB [4]; Homo sapiens, K562, 24 h) | IC50 (HTT [5]; Homo sapiens, K562, 24 h) | IC50 (Target C [6]; Homo sapiens, K562, 24 h) | IC50 (HTT [1]) | IC50 (MYB [2]) | IC50 (SMN2) | IC50 (Target C [3]) | IC50 (MYB [4]; 24 hours) | IC50 (HTT [5]; 24 hours) | IC50 (Target C [6]; 24 hours)
CN(c1ncc(-c2ccc(-c3cn[nH]c3)c3ncsc23)nn1)[C@@H]1C[C@H]2CCC[C@@H](C1)N2 [Compound 449, (1S,5R)—N-methyl-N-[6-[4-(1H-pyrazol-4-yl)-1,3-benzothiazol-7-yl]-1,2,4-triazin-3-yl]-9-azabicyclo[3.3.1]nonan-3-amine] | < 100 nM | 100 to 1000 nM | < 100 nM | < 100 nM | 100 to 1000 nM | < 100 nM | < 100 nM |  |  |  |  |  |  | 
c1nc2c(-c3cn[nH]c3)ccc(-c3cnc(N4CCN[C@H](C5CC5)C4)nn3)c2s1 [Compound 451] | 1000 to 10000 nM | 1000 to 10000 nM | 1000 to 10000 nM | 1000 to 10000 nM | 1000 to 10000 nM | 1000 to 10000 nM | 1000 to 10000 nM |  |  |  |  |  |  | 
c1cnn(-c2ccc(-c3cnc(N4CCC(NC5CC5)C4)nn3)c3cn[nH]c23)c1 (stereo not shown) [Compound 484, N-cyclopropyl-1-[6-(7-pyrazol-1-yl-1H-indazol-4-yl)-1,2,4-triazin-3-yl]pyrrolidin-3-amine] | 1000 to 10000 nM | > 10000 nM | 1000 to 10000 nM | > 10000 nM | > 10000 nM | 1000 to 10000 nM | 1000 to 10000 nM |  |  |  |  |  |  | 
CNC1CCN(c2ncc(-c3ccc(-n4cccn4)c4[nH]ncc34)nn2)C1 (stereo not shown) [Compound 485, N-methyl-1-[6-(7-pyrazol-1-yl-1H-indazol-4-yl)-1,2,4-triazin-3-yl]pyrrolidin-3-amine] | 1000 to 10000 nM | 1000 to 10000 nM | 1000 to 10000 nM | > 10000 nM | 1000 to 10000 nM | 1000 to 10000 nM | 1000 to 10000 nM |  |  |  |  |  |  | 
c1cnn(-c2ccc(-c3cnc(N4CCNC(C5CC5)C4)nn3)c3cn[nH]c23)c1 (stereo not shown) [Compound 511] | < 100 nM | 1000 to 10000 nM | 100 to 1000 nM | 100 to 1000 nM | 1000 to 10000 nM | 100 to 1000 nM | 100 to 1000 nM |  |  |  |  |  |  | 
c1cnn(-c2ccc(-c3cnc(N4CCC(NC5CC5)C4)nn3)c3cn[nH]c23)c1 (stereo not shown) [Compound 548] |  |  |  |  |  |  |  | 1000 to 10000 nM | > 10000 nM | 1000 to 10000 nM | > 10000 nM | > 10000 nM | 1000 to 10000 nM | 1000 to 10000 nM
CNC1CCN(c2ncc(-c3ccc(-n4cccn4)c4[nH]ncc34)nn2)C1 (stereo not shown) [Compound 549] |  |  |  |  |  |  |  | 1000 to 10000 nM | 1000 to 10000 nM | 1000 to 10000 nM | > 10000 nM | 1000 to 10000 nM | 1000 to 10000 nM | 1000 to 10000 nM
CN(c1ccc(-c2ccc(-n3cccn3)c3[nH]ncc23)nn1)C1CC(C)(C)NC(C)(C)C1 [Compound 559] | 100 to 1000 nM | 1000 to 10000 nM | 100 to 1000 nM | 1000 to 10000 nM | 100 to 1000 nM | 100 to 1000 nM | 100 to 1000 nM |  |  |  |  |  |  | 
